Here are results for 9 compounds from ChEMBL document CHEMBL1138731, “Conversion of human-selective PPARalpha agonists to human/mouse dual agonists: a molecular modeling analysis” (Bioorg Med Chem Lett, 2004).

For test [1], the target named is T1, Peroxisome proliferator-activated receptor alpha (Mus musculus, UniProt P23204).
T1 sequence (P23204 whole entry): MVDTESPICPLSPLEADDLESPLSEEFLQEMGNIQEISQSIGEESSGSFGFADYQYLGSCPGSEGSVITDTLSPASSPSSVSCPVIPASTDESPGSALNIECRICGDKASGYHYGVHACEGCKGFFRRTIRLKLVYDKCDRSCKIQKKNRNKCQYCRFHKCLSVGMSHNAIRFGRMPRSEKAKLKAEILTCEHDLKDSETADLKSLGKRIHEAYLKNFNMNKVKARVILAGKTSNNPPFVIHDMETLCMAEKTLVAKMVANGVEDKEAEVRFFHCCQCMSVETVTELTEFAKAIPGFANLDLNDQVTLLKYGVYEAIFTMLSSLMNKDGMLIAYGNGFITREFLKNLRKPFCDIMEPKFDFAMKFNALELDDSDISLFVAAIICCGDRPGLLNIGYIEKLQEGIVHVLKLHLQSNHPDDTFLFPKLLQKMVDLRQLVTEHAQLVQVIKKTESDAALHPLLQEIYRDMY
Description: In vitro inhibition of mouse Peroxisome proliferator activated receptor alpha.

The target in test [2] is T1, Peroxisome proliferator-activated receptor alpha. Description: Transactivation activity for mouse Peroxisome proliferator activated receptor alpha.
Test [3] deals with T2, Peroxisome proliferator-activated receptor alpha (Homo sapiens, UniProt Q07869).
T2 sequence (Q07869 whole entry): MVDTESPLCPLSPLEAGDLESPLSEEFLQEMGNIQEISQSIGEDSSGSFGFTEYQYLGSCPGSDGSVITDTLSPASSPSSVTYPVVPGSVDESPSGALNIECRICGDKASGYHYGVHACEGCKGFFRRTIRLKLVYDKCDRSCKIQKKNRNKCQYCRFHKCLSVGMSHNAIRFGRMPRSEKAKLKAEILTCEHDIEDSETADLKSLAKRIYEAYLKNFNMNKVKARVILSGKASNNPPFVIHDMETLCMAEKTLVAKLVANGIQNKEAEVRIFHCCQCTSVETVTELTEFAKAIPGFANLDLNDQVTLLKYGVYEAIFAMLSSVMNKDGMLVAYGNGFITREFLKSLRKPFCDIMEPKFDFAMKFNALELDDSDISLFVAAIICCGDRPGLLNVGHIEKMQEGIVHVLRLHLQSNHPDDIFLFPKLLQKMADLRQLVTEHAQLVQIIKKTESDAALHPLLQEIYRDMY
Description: Transactivation activity for human Peroxisome proliferator activated receptor alpha.

The target of test [4] is T2, Peroxisome proliferator-activated receptor alpha. As to the kind of experiment: In vitro inhibition of human Peroxisome proliferator activated receptor alpha.
For test [5], the system named is Mus musculus. As to the kind of experiment: Effect on level of triglyceride at a dose of 3 mg/kg in mice treated for 7 days. The class given is functional.

Consider `Cc1oc(-c2ccccc2)nc1CCOc1ccc(CC(C)(Oc2ccc(C(C)(C)C)cc2)C(=O)O)cc1` (centres undefined), for which the results for the IC50 in test [1] and in test [4] were 515 nM and 149 nM, respectively. The EC50 in test [2] came out at 211 nM; in test [3], 11 nM.

Regarding `Cc1ccc(OC(C)(Cc2ccc(OCCc3nc(-c4cccc(-c5ccccc5)c4)oc3C)cc2)C(=O)O)cc1` (centres undefined), the IC50 was determined as 530 nM in test [1] and 306 nM in test [4]. Also, the EC50 in test [2] came to 151 nM; in test [3], 23 nM.

As for `Cc1oc(-c2ccc(-c3ccccc3)cc2)nc1CCOc1ccc(CC(C)(Oc2ccccc2)C(=O)O)cc1` (centres undefined), the IC50 in test [1] came to 7020 nM. Further, in test [2], the EC50 was determined as 2340 nM.

`Cc1oc(-c2ccc(-c3ccccc3)cc2)nc1CCOc1ccc(CC(C)(Oc2ccc(C(C)(C)C)cc2)C(=O)O)cc1` (centres undefined) showed an IC50 in test [1] of 700 nM. For the same compound, the EC50 came to 1170 nM in test [2] and 260 nM in test [3].

As to `Cc1ccc(OC(C)(Cc2ccc(OCCc3nc(-c4ccc(-c5ccccc5)cc4)oc3C)cc2)C(=O)O)cc1` (centres undefined), the IC50 in test [1] is 1460 nM; in test [4], 375 nM. Moreover, the EC50 in test [2] worked out at 1040 nM; in test [3], 39 nM.

For the compound `Cc1ccc(OC(C)(Cc2ccc(OCCc3nc(-c4ccccc4)oc3C)cc2)C(=O)O)cc1` (centres undefined), the IC50 in test [1] was determined as 1400 nM; in test [4], 64 nM. In addition, the concentration giving a half-maximal response (EC50) was found to be 585 nM in test [2] and 7 nM in test [3].

Take `Cc1oc(-c2cccc(-c3ccccc3)c2)nc1CCOc1ccc(CC(C)(Oc2ccc(C(C)(C)C)cc2)C(=O)O)cc1` (centres undefined): the values for the IC50 in test [1] and in test [4] were 146 nM and 133 nM, respectively. The EC50 worked out at 91 nM in test [2] and 49 nM in test [3]. The compound further returned a Triglyceride level in test [5] of about 39%.

`Cc1oc(-c2cccc(-c3ccccc3)c2)nc1CCOc1ccc(CC(C)(Oc2ccccc2)C(=O)O)cc1` (centres undefined) came in with an IC50 in test [1] of 404 nM. Also, the EC50 in test [2] was found to be 173 nM.

As to `Cc1oc(-c2ccccc2)nc1CCOc1ccc(CC(C)(Oc2ccccc2)C(=O)O)cc1` (centres undefined), the Triglyceride level in test [5] is listed as about 56%.
